Results taken from patent publication US9616064B2, “Rho kinase inhibitors and methods of use” (H. LEE MOFFITT CANCER CENTER AND RESEARCH INSTITUTE, INC., priority 2011, dated 2017).

Key:
ROCK1 = ROCK1 (Homo sapiens (Human), UniProt Q13464); assay: Z-lyte FRET assay to measure kinase inhibition, ROCK1; type: biochemical; settings: for inhibition at 50 µM: read-out: ROCK1 % inhibition @ 50 μM, 50 μM compound; for IC50: read-out: ROCK1 IC50
ROCK2 = ROCK2 (Homo sapiens (Human), UniProt O75116); assay: Z-lyte FRET assay to measure kinase inhibition, ROCK2; type: biochemical
ROCK2, sequence (O75116 whole entry, species assumed): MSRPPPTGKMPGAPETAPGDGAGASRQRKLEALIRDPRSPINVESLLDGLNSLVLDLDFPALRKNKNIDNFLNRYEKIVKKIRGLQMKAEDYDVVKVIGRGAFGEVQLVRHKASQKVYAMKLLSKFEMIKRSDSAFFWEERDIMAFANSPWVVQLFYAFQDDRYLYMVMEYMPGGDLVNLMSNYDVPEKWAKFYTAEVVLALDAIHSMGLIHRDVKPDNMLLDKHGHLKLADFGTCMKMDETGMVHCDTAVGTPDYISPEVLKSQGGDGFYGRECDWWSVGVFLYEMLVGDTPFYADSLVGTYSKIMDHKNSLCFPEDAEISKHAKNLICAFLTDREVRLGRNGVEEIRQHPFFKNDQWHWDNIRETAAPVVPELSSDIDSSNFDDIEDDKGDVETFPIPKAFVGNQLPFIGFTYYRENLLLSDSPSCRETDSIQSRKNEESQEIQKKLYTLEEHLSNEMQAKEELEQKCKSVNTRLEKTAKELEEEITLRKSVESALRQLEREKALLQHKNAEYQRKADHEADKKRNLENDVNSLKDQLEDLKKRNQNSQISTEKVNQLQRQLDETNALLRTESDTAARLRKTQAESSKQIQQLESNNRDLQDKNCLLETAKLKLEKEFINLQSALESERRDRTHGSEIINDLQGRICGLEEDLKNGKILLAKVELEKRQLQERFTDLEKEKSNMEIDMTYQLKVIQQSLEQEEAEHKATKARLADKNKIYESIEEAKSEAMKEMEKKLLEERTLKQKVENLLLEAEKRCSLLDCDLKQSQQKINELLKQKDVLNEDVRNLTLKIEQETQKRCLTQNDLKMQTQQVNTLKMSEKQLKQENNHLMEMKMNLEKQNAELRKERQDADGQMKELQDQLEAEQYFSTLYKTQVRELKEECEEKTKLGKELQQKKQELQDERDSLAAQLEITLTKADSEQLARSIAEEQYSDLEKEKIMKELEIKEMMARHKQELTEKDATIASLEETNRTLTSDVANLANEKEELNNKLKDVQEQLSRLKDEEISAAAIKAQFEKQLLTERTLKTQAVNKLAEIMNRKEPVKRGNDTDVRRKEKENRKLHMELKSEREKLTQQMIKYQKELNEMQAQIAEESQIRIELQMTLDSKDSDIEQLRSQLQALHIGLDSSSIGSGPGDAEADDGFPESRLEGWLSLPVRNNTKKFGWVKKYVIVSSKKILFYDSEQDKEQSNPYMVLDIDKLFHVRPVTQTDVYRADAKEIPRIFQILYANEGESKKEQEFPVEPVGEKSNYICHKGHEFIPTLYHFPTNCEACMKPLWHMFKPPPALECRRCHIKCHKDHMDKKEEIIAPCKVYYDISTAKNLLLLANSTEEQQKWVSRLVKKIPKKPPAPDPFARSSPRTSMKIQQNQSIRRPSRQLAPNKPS

ROCK1, sequence (Q13464 whole entry): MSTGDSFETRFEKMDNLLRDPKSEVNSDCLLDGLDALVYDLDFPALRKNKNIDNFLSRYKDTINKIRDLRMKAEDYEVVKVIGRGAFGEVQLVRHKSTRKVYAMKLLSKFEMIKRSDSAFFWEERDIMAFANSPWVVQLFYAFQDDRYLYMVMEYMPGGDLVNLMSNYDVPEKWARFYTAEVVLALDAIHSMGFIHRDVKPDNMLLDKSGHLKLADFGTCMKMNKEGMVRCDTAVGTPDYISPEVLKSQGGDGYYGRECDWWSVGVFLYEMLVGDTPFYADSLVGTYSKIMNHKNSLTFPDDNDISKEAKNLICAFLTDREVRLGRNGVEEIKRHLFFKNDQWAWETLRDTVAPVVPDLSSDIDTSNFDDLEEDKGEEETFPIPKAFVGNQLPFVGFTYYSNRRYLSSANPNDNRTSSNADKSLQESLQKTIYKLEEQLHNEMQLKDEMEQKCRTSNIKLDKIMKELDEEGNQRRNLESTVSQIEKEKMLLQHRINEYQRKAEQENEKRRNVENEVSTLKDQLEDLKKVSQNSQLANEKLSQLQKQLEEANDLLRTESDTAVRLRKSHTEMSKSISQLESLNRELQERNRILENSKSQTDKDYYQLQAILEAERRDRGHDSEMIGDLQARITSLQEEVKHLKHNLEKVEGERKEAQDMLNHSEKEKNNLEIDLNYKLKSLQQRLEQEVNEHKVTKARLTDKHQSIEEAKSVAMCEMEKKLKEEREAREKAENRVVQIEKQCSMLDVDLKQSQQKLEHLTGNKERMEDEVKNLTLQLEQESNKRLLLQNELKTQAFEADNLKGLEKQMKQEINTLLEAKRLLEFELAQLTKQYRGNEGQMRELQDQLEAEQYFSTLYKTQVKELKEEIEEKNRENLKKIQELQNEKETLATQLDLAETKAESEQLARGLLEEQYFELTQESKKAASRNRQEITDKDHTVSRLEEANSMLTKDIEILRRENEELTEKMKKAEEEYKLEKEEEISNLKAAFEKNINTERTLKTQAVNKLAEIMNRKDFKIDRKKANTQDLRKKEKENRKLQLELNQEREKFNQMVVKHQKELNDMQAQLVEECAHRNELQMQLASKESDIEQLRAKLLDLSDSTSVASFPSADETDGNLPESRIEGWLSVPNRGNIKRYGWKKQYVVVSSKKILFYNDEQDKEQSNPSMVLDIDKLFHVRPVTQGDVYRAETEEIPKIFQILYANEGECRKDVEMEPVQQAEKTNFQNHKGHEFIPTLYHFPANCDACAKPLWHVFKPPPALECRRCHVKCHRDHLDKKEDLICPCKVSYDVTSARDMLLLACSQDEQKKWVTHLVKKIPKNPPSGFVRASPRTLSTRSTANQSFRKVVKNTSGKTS

Row | inhibition at 50 µM (ROCK1) [%] | IC50 (ROCK1) [nM] | IC50 (ROCK2) [nM] | SMILES
1 | 89 ± 1 | 2100 ± 300 | 1700 ± 300 | Nc1nccc(-n2ccc3cc(Br)ccc32)n1
2 | 72 ± 10 | 2700 ± 1780 | 260 ± 90 | Nc1nccc(-n2ccc3c(C(=O)NCc4cccc(F)c4)cccc32)n1
3 | 47 ± 6 | 55300 ± 13400 | > 50000 | Nc1nccc(Nc2ccccc2)n1
4 | 49 ± 4 | 41000 ± 2300 | 37900 ± 2000 | CS(=O)(=O)c1ccc2c(c1)CCN2c1ccnc(N)n1
5 | 73 ± 4 | 25800 ± 2600 | 10300 ± 900 | Nc1nccc(N2CCc3cc(S(N)(=O)=O)ccc32)n1
6 | 80 ± 3 | 800 ± 500 | 400 ± 100 | Nc1nccc(-n2ccc3c(OCc4ccccc4)cccc32)n1
7 | 76 ± 2 | 39000 ± 6900 | 16300 ± 5500 | Nc1nccc(-n2ccc3cc(OCc4ccccc4)ccc32)n1
8 | 98 ± 2 | 500 ± 100 | 400 ± 100 | CC1Cc2cc([N+](=O)[O-])ccc2N1c1ccnc(N)n1 (stereo not drawn)
9 | 54 ± 4 | 38900 ± 900 | 33300 ± 2800 | NC(=O)c1cccc(Nc2ccnc(N)n2)c1
10 | 92 ± 1 | 1000 ± 500 | 200 ± 100 | Nc1nccc(-n2ccc3c(C(=O)NCc4ccccc4)cccc32)n1
11 | 88.7 ± 5.96 | 5670 ± 320 | 920 ± 480 | Nc1nccc(-n2ccc3c(C(=O)NCc4ccccc4F)cccc32)n1
12 | 90 ± 1 | 480 ± 99 | 250 ± 70 | Nc1nccc(N2CCc3c(OCc4ccccc4)cccc32)n1
13 | 82 ± 5 | 8300 ± 900 | 7100 ± 2100 | Cc1ccc2c(ccn2-c2ccnc(N)n2)c1
14 | 44 ± 9 | 34600 ± 8200 | 32700 ± 8100 | Nc1nccc(-n2ccc3c(OCc4cccc(Cl)c4)cccc32)n1
15 | 63 ± 5 | 37000 ± 8800 | 39600 ± 6200 | COC(=O)c1cccc(Nc2ccnc(N)n2)c1
16 | 83 ± 5 | 1700 ± 300 | 1200 ± 100 | Nc1nccc(N2CCc3cc(Br)ccc32)n1

Row | inhibition at 50 µM (ROCK1) [%] | IC50 (ROCK1) [nM] | IC50 (ROCK2) [nM] | SMILES
17 | 51 ± 1 | 2200 ± 300 | 1800 ± 300 | Nc1nccc(N2CCc3ccc([N+](=O)[O-])cc32)n1
18 | 93 ± 7 | 150 ± 20 | 40 ± 30 | COc1cccc(CNC(=O)c2cccc3c2ccn3-c2ccnc(N)n2)c1
19 | 91 ± 2 | 4860 ± 600 | 7820 ± 2300 | Nc1nccc(Nc2cccc([N+](=O)[O-])c2)n1
20 | 89 ± 1 | 4900 ± 800 | 5300 ± 1200 | COc1ccc2c(c1)c(CCNC(C)=O)cn2-c1ccnc(N)n1
21 | 88 ± 2 | 4900 ± 500 | 4900 ± 1000 | COc1ccc2ccn(-c3ccnc(N)n3)c2c1
22 | 73 ± 3 | 1500 ± 200 | 1200 ± 200 | Nc1nccc(N2CCc3cc(Cl)ccc32)n1
23 | 91 ± 1 | 2000 ± 500 | 500 ± 100 | Nc1nccc(-n2ccc3c(C(=O)NCCc4ccccc4)cccc32)n1
24 | 97 ± 4 | 400 ± 100 | 200 ± 10 | CC1Cc2cc(F)ccc2N1c1ccnc(N)n1 (stereo not drawn)
25 | 69 ± 3 | 6000 ± 2000 | 1800 ± 680 | COc1ccccc1CNC(=O)c1cccc2c1ccn2-c1ccnc(N)n1
26 | 71 ± 2 | 1900 ± 420 | 460 ± 80 | Nc1nccc(-n2ccc3c(OCc4ccc(Cl)cc4)cccc32)n1
27 | 88 ± 4 | 4800 ± 300 | 4000 ± 300 | Nc1nccc(-n2ccc3ccccc32)n1
28 | 89 ± 7 | 1200 ± 200 | 700 ± 100 | Nc1nccc(N2CCc3cc(F)ccc32)n1
29 | 62 ± 6 | 29100 ± 8200 | 19000 ± 5900 | Nc1nccc(-n2ccc3c(OCc4ccccc4Cl)cccc32)n1
30 | 93 ± 2 | 4800 ± 500 | 2600 ± 100 | CC1CN(c2ccnc(N)n2)c2ccccc21 (stereo not drawn)
31 | 69 ± 1 | 19800 ± 4300 | 35300 ± 5100 | Nc1nccc(N2CCCc3ccccc32)n1
